Laboratory results as given in ChEMBL document CHEMBL4007389, “Discovery and evaluation of inhibitors to the immunosuppressive enzyme indoleamine 2,3-dioxygenase 1 (IDO1): Probing the active site-inhibitor interactions” (Eur J Med Chem, 2017).

Experiments:
[1] = target: Indoleamine 2,3-dioxygenase 1 (Homo sapiens, UniProt P14902, S167A)
[2] = species: Homo sapiens; experiment: Selectivity ratio of IC50 for recombinant human IDO1 S167A mutant expressed in Escherichia coli SG13009(pREP4) to IC50 for recombinant human IDO1 expressed in bacterial expression system
[3] = target: T1, Indoleamine 2,3-dioxygenase 1 (Homo sapiens, UniProt P14902); experiment: Inhibition of recombinant human IDO1 expressed in bacterial expression system using L-Tryptophan as substrate after 25 mins in absence of GSH and presence of tween20 by fluorescence assay
Target sequence in this assay (P14902 whole entry): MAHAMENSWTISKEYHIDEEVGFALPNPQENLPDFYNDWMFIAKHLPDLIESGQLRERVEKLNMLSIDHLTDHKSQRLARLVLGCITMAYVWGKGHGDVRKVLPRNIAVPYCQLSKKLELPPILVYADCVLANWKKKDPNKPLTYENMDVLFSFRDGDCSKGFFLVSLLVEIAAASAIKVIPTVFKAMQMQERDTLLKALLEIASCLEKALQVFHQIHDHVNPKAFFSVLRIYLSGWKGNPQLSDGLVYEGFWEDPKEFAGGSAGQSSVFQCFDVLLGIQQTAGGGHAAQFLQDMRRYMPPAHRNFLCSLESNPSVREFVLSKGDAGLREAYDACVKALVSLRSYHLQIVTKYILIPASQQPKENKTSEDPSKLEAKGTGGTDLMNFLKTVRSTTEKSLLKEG

[4] = target: T1, Indoleamine 2,3-dioxygenase 1; experiment: Inhibition of full length recombinant human His-tagged IDO1 expressed in mouse LLTC cells using L-tryptophan as substrate after 24 hrs; type: cell-based
Target sequence in this assay (P14902 whole entry): as above

[5] = Cytotoxicity against mouse LLTC cells assessed as reduction in cell viability after 24 hrs by MTT assay; type: cell-based; conditions: read-out: LC50
[6] = system: Indoleamine 2,3-dioxygenase 1 (Homo sapiens), P14902 [S167A]; experiment: Inhibition of recombinant human IDO1 S167A mutant expressed in Escherichia coli SG13009(pREP4) at 20 uM using L-Tryptophan as substrate after 25 mins by fluorescence assay relative to control
Chain of Indoleamine 2,3-dioxygenase 1 (Homo sapiens), P14902 [S167A] (P14902 whole entry S167A): as the sequence (P14902 whole entry) above, with S167A counted along it

[7] = target: T1, Indoleamine 2,3-dioxygenase 1; experiment: Inhibition of recombinant human IDO1 expressed in bacterial expression system at 200 uM using L-Tryptophan as substrate after 25 mins by fluorescence assay relative to control
Target sequence in this assay (P14902 whole entry, looked up): as the sequence (P14902 whole entry) above

[8] = target: T1, Indoleamine 2,3-dioxygenase 1; experiment: Inhibition of recombinant human IDO1 expressed in bacterial expression system using L-Tryptophan as substrate after 25 mins in presence of GSH and tween20 by fluorescence assay
Target sequence in this assay (P14902 whole entry): as above

[9] = target: T1, Indoleamine 2,3-dioxygenase 1; experiment: Inhibition of recombinant human IDO1 expressed in bacterial expression system using L-Tryptophan as substrate after 25 mins in absence of GSH and tween20 by fluorescence assay
Target sequence in this assay (P14902 whole entry): as above

[10] = target: T1, Indoleamine 2,3-dioxygenase 1; conditions: 50 uM
Target sequence in this assay (P14902 whole entry, looked up): as the sequence (P14902 whole entry) above

[11] = target: T1, Indoleamine 2,3-dioxygenase 1; experiment: Inhibition of recombinant human IDO1 expressed in bacterial expression system at 350 uM using L-Tryptophan as substrate after 25 mins by fluorescence assay relative to control
Target sequence in this assay (P14902 whole entry, looked up): as the sequence (P14902 whole entry) above

[12] = target: T1, Indoleamine 2,3-dioxygenase 1; experiment: Inhibition of recombinant human IDO1 expressed in bacterial expression system at 100 uM using L-Tryptophan as substrate after 25 mins by fluorescence assay relative to control
Target sequence in this assay (P14902 whole entry, looked up): as the sequence (P14902 whole entry) above

[13] = target: T1, Indoleamine 2,3-dioxygenase 1; experiment: Inhibition of recombinant human IDO1 expressed in bacterial expression system at 400 uM using L-Tryptophan as substrate after 25 mins by fluorescence assay relative to control
Target sequence in this assay (P14902 whole entry, looked up): as the sequence (P14902 whole entry) above

[14] = target: Indoleamine 2,3-dioxygenase 1 (Homo sapiens, UniProt P14902, C129A); experiment: Inhibition of recombinant human IDO1 C129A mutant expressed in Escherichia coli SG13009(pREP4) using L-Tryptophan as substrate after 25 mins by fluorescence assay
Chain of Indoleamine 2,3-dioxygenase 1 (Homo sapiens, UniProt P14902, C129A) (P14902 whole entry C129A): as the sequence (P14902 whole entry) above, with C129A counted along it

[15] = system: Indoleamine 2,3-dioxygenase 1 (Homo sapiens), P14902 [C129A]; experiment: Inhibition of recombinant human IDO1 C129A mutant expressed in Escherichia coli SG13009(pREP4) at 20 uM using L-Tryptophan as substrate after 25 mins by fluorescence assay relative to control
Chain of Indoleamine 2,3-dioxygenase 1 (Homo sapiens), P14902 [C129A] (P14902 whole entry C129A): as the sequence (P14902 whole entry) above, with C129A counted along it

[16] = target: T1, Indoleamine 2,3-dioxygenase 1; experiment: Inhibition of recombinant human IDO1 expressed in bacterial expression system at 250 uM using L-Tryptophan as substrate after 25 mins by fluorescence assay relative to control
Target sequence in this assay (P14902 whole entry, looked up): as the sequence (P14902 whole entry) above

[17] = target: T1, Indoleamine 2,3-dioxygenase 1; conditions: 30 uM
[18] = target: T1, Indoleamine 2,3-dioxygenase 1; experiment: Inhibition of recombinant human IDO1 expressed in bacterial expression system at 50 uM using L-Tryptophan as substrate after 25 mins by fluorescence assay relative to control

Chain of Indoleamine 2,3-dioxygenase 1 (Homo sapiens, UniProt P14902, S167A) (P14902 whole entry S167A): as the sequence (P14902 whole entry) above, with S167A counted along it

Compound | IC50 [1] | Ratio IC50 [2] | IC50 [3] | IC50 [4] | CC50 at 24 h [5] | further results
Sc1ccc(Cl)cc1 | 3.5 µM | 0.5 | 7.9 µM | 9.2 µM | 35 µM | 
COc1ccc(C2=[N+]([O-])c3ccccc3C2=O)cc1 | 63 µM | 39 | 1.6 µM | 2.3 µM | 42 µM | 
O=[N+]([O-])c1ccccc1NCSc1ccc(Cl)cc1 |  |  | 63 µM | 6.3 µM | 52 µM | 
COC12C(COC(N)=O)C3=C(C(=O)C(C)=C(N)C3=O)N1CC1C2N1C (stereo not given) | 1000 µM | 63.6 | 15.7 µM |  |  | inhibition [6]: -4%
COc1ccc(-c2cc3ccccc3[nH]2)cc1 |  |  |  |  |  | inhibition [7]: 16%
Cc1ccc([S+]([O-])c2ccc([N+](=O)[O-])c3nonc23)cc1 (stereo not given) | 0.66 µM | 0.055 | 12 µM | 15 µM | 29 µM | IC50 [8]: 2.1 µM; IC50 [9]: 14 µM; inhibition [10]: > 75%
Cn1c2ccccc2c2ccc3c(c21)C(=O)C=CC3=O | 1000 µM | 23.5 | 42.5 µM |  |  | inhibition [6]: -2%
O=c1c(O)cccc2cc(O)c(O)c(O)c12 [PURPUROGALLIN] | 1000 µM | 16.7 | 60 µM |  |  | inhibition [6]: -4%
O=C1C(c2ccccc2)=Nc2ccccc21 |  |  |  | 114 µM | 220 µM | inhibition [11]: 9%
Cc1cccc2c1c1ccc3c(c1n2C)C(=O)C=CC3=O | 1000 µM | 28.1 | 35.6 µM |  |  | inhibition [6]: -5%
O=C(O)c1cc(F)c2nonc2c1Nc1ccc(I)cc1F | 47 µM | 1 | 43 µM | 168 µM | > 233 µM | 
CCn1c2ccccc2nc2cc3c(cc21)c(Cl)c(=O)c1ccccc13 | 980 µM | 23.1 | 42.5 µM |  |  | inhibition [6]: 2%
COc1ccc2c(c1)c1ccc3c(c1n2C)C(=O)C=CC3=O | 1000 µM | 39.3 | 25.5 µM |  |  | inhibition [6]: -5%
NC1=C(c2ccccc2)C(=O)c2ccccc21 |  |  |  |  |  | inhibition [12]: 14%
COc1ccc(Nc2ccc([N+](=O)[O-])c3nonc23)cc1 |  |  | 96 µM |  |  | 
Cc1ccccc1-c1nc2ccccc2[nH]1 |  |  |  |  |  | inhibition [13]: -2%
COc1c(NC(C)=O)c2ccccc2c2ccccc12 | 1000 µM | 28.1 | 35.6 µM |  |  | inhibition [6]: -9%
CC(=O)OC1=C(c2ccccc2)C(=O)c2ccccc21 |  |  | 266 µM |  |  | 
NNC(=O)CNc1cccc(Br)c1 |  |  | 1000 µM |  |  | IC50 [14]: 44.9 µM; inhibition [15]: 30.8%
O=[N+]([O-])c1ccc(Nc2ccc(Br)cc2)c2nonc12 |  |  | 68 µM |  |  | 
CC1=NC(SCc2ccc(Cl)cc2Cl)=NC(=O)C1 |  |  |  | 217 µM | > 125 µM | inhibition [13]: -8%
COC(=O)c1cc(F)c2nonc2c1Nc1ccc(I)cc1F |  |  |  |  |  | inhibition [16]: 3%
O/N=C1\c2ccccc2NC1c1ccccc1 (stereo not given) | 366 µM | 1 | 510 µM |  |  | 
c1ccc(-c2nc3c4ccccc4c4ccccc4c3[nH]2)cc1 |  |  |  |  |  | inhibition [16]: 8%
Clc1ccc(SCNc2ccccc2Cl)cc1 | 0.87 µM | 0.2 | 4.5 µM | 6.3 µM | 40 µM | IC50 [8]: 1.5 µM; IC50 [9]: 5.5 µM; inhibition [17]: < 25%
COc1ccc(C2=C(N)c3ccccc3C2=O)cc1 |  |  |  |  |  | inhibition [18]: 13%
O=[N+]([O-])c1ccc(Sc2ccc(F)cc2)c2nonc12 | 17 µM | 2 | 8.8 µM | 4.6 µM | > 50 µM | 
O=[N+]([O-])c1cccc2nsnc12 | 614 µM | 2 | 320 µM |  |  | 
CC(=O)OCCn1c2nc(=O)[nH]c(=O)c-2nc2cc(C)c(C)cc21 | 1000 µM | 32 | 31.3 µM |  |  | inhibition [6]: -8%
